Experimental findings from patent publication US20070014803A1, “METHODS AND COMPOSITIONS FOR DIAGNOSIS AND TREATMENT OF VIRAL AND BACTERIAL INFECTIONS” (Arbor Vita Corporation, priority 2005, published 2007) are described below.

One experiment concerns the target T1, PDZ protein NSP (Homo sapiens, UniProt Q92743).
T1 construct: made in house
As to the kind of experiment: PRISM Matrix ELISA modified G assay (pre-incubation), peptide titration. The conditions noted are these: read-out: EC50 of binding to the PDZ protein NSP. On the procedure: (§1) Two different types of ELISA assays were used to test the HIV Peptides 1904 and 1905. The primary MATRIX screen against all PDZ proteins in the library was performed under pre-incubation conditions, which are a modification of the G assay. A pre-incubation assay incubates the peptide with the HRP-streptavidin before addition of the mixture to the PDZ-coated plate. The subsequent titrations of the peptide against the PDZs of interest were performed under normal ELISA G assay conditions. In normal conditions the peptide is incubated on the PDZ coated plate before the later addition of the HRP-streptavidin. The reagents and supplies for both assays are listed below, as well as the two different protocols.
(§2) The PRISM Matrix ELISA modified G Assay was also used for pre-incubation and for the MATRIX assay. The protocol was as follows.
(§3) 1. Coat plate with 100 μl of 5 μg/ml anti-GST, O/N @ 4° C.
(§4) 2. Dump contents out of plate and tap dry on paper towels
(§5) 3. Block with 200 μl Assay Buffer for 1 to 2 hrs at room temperature
(§6) 4. Prepare proteins in Assay Buffer
(§7) 5. Wash plate 3× with cold PBS*
(§8) 6. Add proteins at 50 μl per well, incubate 1 to 2 hrs at 4° C.
(§9) 7. Prepare peptides in Assay Buffer:
(§10) • Prepare peptides in half of volume need with double of desired concentration. • Dilute HRP (1:1000) in another half of volume (same volume with peptide) then mix with peptides. • Incubate the peptide-HRP mixtures for 20 minutes at RT 8. Wash plate 3× with cold PBS* 9. Add peptide-HRP mixtures at 50 μl per well (write time on plate) 10. Incubate at RT after last peptide has been added for exactly 30 minutes 11. Turn on plate reader and prepare files 12. Promptly wash plate 5× with room temperature PBS 13. Add 100 μl/well TMB substrate (write time on plate) 14. Incubate in dark at room temp for a maximum of 30 minutes 15. Stop reaction with 100 μl of 0.18M H2SO4, 30 min. after adding TMB 16. Take last reading at 450 nm soon after stopping reaction
On the technique in general: An ELISA detects its analyte on a solid surface through an enzyme-linked reagent.

The target in a further experiment is T2, PDZ protein Rim2 (Homo sapiens, UniProt Q9UQ26).
T2 construct: made in house
T2 sequence (Q9UQ26 632-757): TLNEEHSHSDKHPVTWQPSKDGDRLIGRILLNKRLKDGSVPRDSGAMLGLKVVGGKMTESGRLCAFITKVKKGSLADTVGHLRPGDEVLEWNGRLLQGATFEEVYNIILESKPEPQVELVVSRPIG
The description is as above. The conditions noted are these: read-out: EC50 of binding to the PDZ protein Rim2. The procedure:
as §1, §2, §3, §4, §5, §6, §7, §8, §9, §10

Experiment [1] concerns the target T3, PDZ protein ZO-1 d2 (domain 2) (Homo sapiens, UniProt Q07157, DEL264-264).
T3 construct: made in house
T3 sequence (Q07157 with tags, fused parts or gaps DEL264-264): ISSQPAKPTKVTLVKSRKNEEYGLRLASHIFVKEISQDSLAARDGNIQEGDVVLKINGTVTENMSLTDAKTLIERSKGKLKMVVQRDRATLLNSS
The experiment is described as above. The conditions noted are these: read-out: EC50 of binding to the PDZ protein ZO-1 d2. On the procedure: as §1, §2, §3, §4, §5, §6, §7, §8, §9, §10

The target of another experiment is T4, KIAA1284 (Homo sapiens, UniProt Q9ULD6).
T4 construct: made in house
Description: MATRIX screen against PDZ library (modified G assay). It counts as binding. The conditions noted are these: pre-incubation conditions. The procedure:
(§11) Matrix graphPeptides and proteins were tested in an array format constituting a near complete set (255) of all the different PDZ domains in the human genome. Each PDZ domain polypeptide was expressed as a recombinant GST-PDZ polypeptide in a commercial glutathione S-transferase tagged expression system. Specific binding of biotinylated-PL peptides to PDZ domain polypeptides was detected using streptavidin-HRP and TMB substrate. Similarly, specific binding of PL protein-MBP fusion proteins to PDZ domain polypeptides was visualized using biotinylated anti-MBP, streptavidin-HRP and TMB substrate. The relative strength of binding was analyzed and the strong and weak binders are shown for each PL. A PDZ protein that binds more strongly is preferable when used for capturing or identifying PL proteins.
as §1, §2, §3, §4, §5, §6, §7, §8, §9, §10

The next experiment deals with T5, MAST2 (Homo sapiens, UniProt Q6P0Q8).
T5 construct: made in house
The experiment is described as above. The following applies: pre-incubation conditions. It counts as binding. On the procedure:
as §11, §1, §2, §3, §4, §5, §6, §7, §8, §9, §10

The target in a further experiment is T6, NSP (Homo sapiens, UniProt Q92743).
T6 construct: made in house
Described as above. The experiment is classed as binding. The following applies: pre-incubation conditions. On the procedure: as §11, §1, §2, §3, §4, §5, §6, §7, §8, §9, §10

A further experiment deals with T7, PAR3 d3 (Homo sapiens, UniProt Q8TEW0, R682S).
T7 construct: made in house
Described as above. The following applies: pre-incubation conditions. The experiment is classed as binding. On the procedure: as §11, §1, §2, §3, §4, §5, §6, §7, §8, §9, §10

For a further experiment, the target named is T8, SIP1 d1 (Homo sapiens, UniProt Q15599).
T8 construct: made in house
The experiment is described as above. It counts as binding. The conditions noted are these: pre-incubation conditions. The procedure: as §11, §1, §2, §3, §4, §5, §6, §7, §8, §9, §10

Where [2] appears, read: modified G assay titration (FIG. 2D, FIG. 3D).
[3] abbreviates: modified G assay titration (FIG. 2C, FIG. 3C).
The mark [4] stands for this setting: modified G assay titration (FIG. 2B, FIG. 3B).

Read-outs that look alike come from different tables or passages of the source. Where no end group is shown, it is not given here.

By EC50 is commonly meant the concentration giving half of the maximal effect.

T1 sequence (Q92743 359-473): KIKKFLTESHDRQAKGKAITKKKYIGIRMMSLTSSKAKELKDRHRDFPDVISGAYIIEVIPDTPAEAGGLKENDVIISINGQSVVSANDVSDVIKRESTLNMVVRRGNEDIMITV
T8 sequence (Q15599 with tags, fused parts or gaps): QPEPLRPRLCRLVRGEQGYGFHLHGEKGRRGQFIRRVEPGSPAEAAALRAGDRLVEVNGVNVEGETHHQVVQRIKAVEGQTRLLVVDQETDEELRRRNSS
T6 sequence (Q92743 359-473): as the sequence (Q92743 359-473) above
T4 sequence (Q9ULD6 159-271): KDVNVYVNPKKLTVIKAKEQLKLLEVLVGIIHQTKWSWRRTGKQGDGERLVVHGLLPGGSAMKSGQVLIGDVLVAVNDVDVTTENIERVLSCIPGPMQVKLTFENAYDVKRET
T5 sequence (Q6P0Q8 with tags, fused parts or gaps): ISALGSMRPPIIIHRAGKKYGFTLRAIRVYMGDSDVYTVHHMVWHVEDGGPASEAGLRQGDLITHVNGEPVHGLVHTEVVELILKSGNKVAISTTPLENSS
T7 sequence (Q8TEW0 with tags, fused parts or gaps R682S): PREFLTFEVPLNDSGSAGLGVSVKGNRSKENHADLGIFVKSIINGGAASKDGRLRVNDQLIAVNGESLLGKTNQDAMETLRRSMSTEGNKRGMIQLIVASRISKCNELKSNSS

Consider YGRKKRRQRRRRQGFERALL-OH [Peptide 1905], for which the EC50 on PDZ protein NSP (setting [2]) stood at 8 nM; on PDZ protein NSP (modified G assay titration, third experiment (FIG. 5, printed as FIG. 3D)), 30 nM; at PDZ protein Rim2 (setting [3]), 14 nM; at PDZ protein Rim2 (modified G assay titration, third experiment (FIG. 5, printed as FIG. 3C)) it was 68 nM; in experiment [1] (setting [4]) it was 2.8 nM; in experiment [1] (modified G assay titration, third experiment (FIG. 5B)), 36 nM. Further, the “Intensity of Hit, PDZ KIAA1284” value at KIAA1284 is given as “STRONG”. In addition, the “Intensity of Hit, PDZ MAST2” value on MAST2 is “STRONG”. Further, the “Intensity of Hit, PDZ NSP” value on NSP is listed as “STRONG”. Besides, the “Intensity of Hit, PDZ PAR3 d3” value on PAR3 d3 is recorded as “STRONG”. The “Intensity of Hit, PDZ SIP1 d1” value on SIP1 d1 is “STRONG”.
Turning to YGRKKRRQRRRRQGLERILL-OH [Peptide 1904], the EC50 at PDZ protein NSP (setting [2]) was 14.9 nM; on PDZ protein Rim2 (setting [3]), 30 nM; in experiment [1] (setting [4]), 25 nM. For the same substance, at KIAA1284, the “Intensity of Hit, PDZ KIAA1284” value is “STRONG”. Also, the “Intensity of Hit, PDZ MAST2” value at MAST2 is listed as “STRONG”. Further, the “Intensity of Hit, PDZ NSP” value on NSP is given as “STRONG”. The “Intensity of Hit, PDZ PAR3 d3” value on PAR3 d3 was “STRONG”. In addition, the “Intensity of Hit, PDZ SIP1 d1” value at SIP1 d1 is “WEAK”.
